In PubChem BioAssay (NCI):
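Where inhibition never reached the appropriate level, the endpoint shown equals the highest concentration tested. Otherwise, values were interpolated linearly from a five-concentration, 48-hour dose response in 96-well plates. TGI denotes the concentration required for complete inhibition of growth.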

Test system: A498 renal
Assay: growth of human tumour cells (NCI), 48 h

SMILES	TGI [µM]
Nc1nc(SCCC/C=C/I)nc2c1ncn2C1OC(COP(=O)(O)O)C(O)C1O (configuration not stated)	> 100
Nc1c(S(=O)(=O)O)cc2cc(S(=O)(=O)O)ccc2c1N=Nc1ccc(-c2ccc(N=Nc3c(N)c(S(=O)(=O)O)cc4cc(S(=O)(=O)O)ccc34)c(S(=O)(=O)O)c2)cc1	> 100
N=c1nnc2ccc(Cl)cc2n1O	> 100
CCN(CC)CCNC(=O)c1cc2cc(NC(=O)c3cc4cc([N+](=O)[O-])ccc4[nH]3)ccc2[nH]1	> 82.7

Test system: BT-549 breast
Assay: growth of human tumour cells (NCI), 48 h

SMILES	TGI [µM]
COc1ccc(C(=C2C=CC=C2)c2ccc(OC)cc2)cc1	> 100
Oc1ccc(-c2nc3ccc(Br)cc3s2)cc1	44.7
N=c1nnc2ccc(Cl)cc2n1O	> 100
CCN(CC)CCNC(=O)c1cc2cc(NC(=O)c3cc4cc([N+](=O)[O-])ccc4[nH]3)ccc2[nH]1	> 100

Test system: CAKI-1 renal
Assay: growth of human tumour cells (NCI), 48 h

SMILES	TGI [µM]
COc1ccc(C(=C2C=CC=C2)c2ccc(OC)cc2)cc1	56.3
Oc1ccc(-c2nc3ccc(Br)cc3s2)cc1	33.7
N=c1nnc2ccc(Cl)cc2n1O	> 100
CCN(CC)CCNC(=O)c1cc2cc(NC(=O)c3cc4cc([N+](=O)[O-])ccc4[nH]3)ccc2[nH]1	> 100
CC1=C(Cl)C=CP(=O)(Oc2ccccc2)C1 (configuration not stated)	> 100

Test system: CCRF-CEM leukemia
Assay: growth of human tumour cells (NCI), 48 h

SMILES	TGI [µM]
COc1ccc(C(=C2C=CC=C2)c2ccc(OC)cc2)cc1	53
Oc1ccc(-c2nc3ccc(Br)cc3s2)cc1	16.5
Nc1nc(SCCC/C=C/I)nc2c1ncn2C1OC(COP(=O)(O)O)C(O)C1O (configuration not stated)	> 100
Nc1c(S(=O)(=O)O)cc2cc(S(=O)(=O)O)ccc2c1N=Nc1ccc(-c2ccc(N=Nc3c(N)c(S(=O)(=O)O)cc4cc(S(=O)(=O)O)ccc34)c(S(=O)(=O)O)c2)cc1	> 100
N=c1nnc2ccc(Cl)cc2n1O	> 100
CC1=C(Cl)C=CP(=O)(Oc2ccccc2)C1 (configuration not stated)	> 10
COc1ccc(/C=c2\sc3n(c2=O)CCN=3)cc1	> 100

Test system: DMS 114 small cell lung
Assay: growth of human tumour cells (NCI), 48 h

SMILES	TGI [µM]
Nc1nc(SCCC/C=C/I)nc2c1ncn2C1OC(COP(=O)(O)O)C(O)C1O (configuration not stated)	> 100
Nc1c(S(=O)(=O)O)cc2cc(S(=O)(=O)O)ccc2c1N=Nc1ccc(-c2ccc(N=Nc3c(N)c(S(=O)(=O)O)cc4cc(S(=O)(=O)O)ccc34)c(S(=O)(=O)O)c2)cc1	> 100
CC1=C(Cl)C=CP(=O)(Oc2ccccc2)C1 (configuration not stated)	90.9

Test system: DMS 273 small cell lung
Assay: growth of human tumour cells (NCI), 48 h

SMILES	TGI [µM]
Nc1nc(SCCC/C=C/I)nc2c1ncn2C1OC(COP(=O)(O)O)C(O)C1O (configuration not stated)	> 100
Nc1c(S(=O)(=O)O)cc2cc(S(=O)(=O)O)ccc2c1N=Nc1ccc(-c2ccc(N=Nc3c(N)c(S(=O)(=O)O)cc4cc(S(=O)(=O)O)ccc34)c(S(=O)(=O)O)c2)cc1	> 100
CC1=C(Cl)C=CP(=O)(Oc2ccccc2)C1 (configuration not stated)	75.9

Test system: EKVX NSCLC
Assay: growth of human tumour cells (NCI), 48 h

SMILES	TGI [µM]
COc1ccc(C(=C2C=CC=C2)c2ccc(OC)cc2)cc1	> 100
Oc1ccc(-c2nc3ccc(Br)cc3s2)cc1	28.6
Nc1nc(SCCC/C=C/I)nc2c1ncn2C1OC(COP(=O)(O)O)C(O)C1O (configuration not stated)	> 100
Nc1c(S(=O)(=O)O)cc2cc(S(=O)(=O)O)ccc2c1N=Nc1ccc(-c2ccc(N=Nc3c(N)c(S(=O)(=O)O)cc4cc(S(=O)(=O)O)ccc34)c(S(=O)(=O)O)c2)cc1	> 100
N=c1nnc2ccc(Cl)cc2n1O	> 100
CCN(CC)CCNC(=O)c1cc2cc(NC(=O)c3cc4cc([N+](=O)[O-])ccc4[nH]3)ccc2[nH]1	> 100
CC1=C(Cl)C=CP(=O)(Oc2ccccc2)C1 (configuration not stated)	> 100
COc1ccc(/C=c2\sc3n(c2=O)CCN=3)cc1	> 100

Test system: HOP-18 NSCLC
Assay: growth of human tumour cells (NCI), 48 h

SMILES	TGI [µM]
Nc1c(S(=O)(=O)O)cc2cc(S(=O)(=O)O)ccc2c1N=Nc1ccc(-c2ccc(N=Nc3c(N)c(S(=O)(=O)O)cc4cc(S(=O)(=O)O)ccc34)c(S(=O)(=O)O)c2)cc1	> 100
CC1=C(Cl)C=CP(=O)(Oc2ccccc2)C1 (configuration not stated)	89.6
COc1ccc(/C=c2\sc3n(c2=O)CCN=3)cc1	> 100

Test system: HOP-92 NSCLC
Assay: growth of human tumour cells (NCI), 48 h

SMILES	TGI [µM]
COc1ccc(C(=C2C=CC=C2)c2ccc(OC)cc2)cc1	> 100
Nc1nc(SCCC/C=C/I)nc2c1ncn2C1OC(COP(=O)(O)O)C(O)C1O (configuration not stated)	> 100
Nc1c(S(=O)(=O)O)cc2cc(S(=O)(=O)O)ccc2c1N=Nc1ccc(-c2ccc(N=Nc3c(N)c(S(=O)(=O)O)cc4cc(S(=O)(=O)O)ccc34)c(S(=O)(=O)O)c2)cc1	> 100
CCN(CC)CCNC(=O)c1cc2cc(NC(=O)c3cc4cc([N+](=O)[O-])ccc4[nH]3)ccc2[nH]1	> 50.7
CC1=C(Cl)C=CP(=O)(Oc2ccccc2)C1 (configuration not stated)	> 100
COc1ccc(/C=c2\sc3n(c2=O)CCN=3)cc1	95.8

Test system: LXFL 529 NSCLC
Assay: growth of human tumour cells (NCI), 48 h

SMILES	TGI [µM]
Nc1nc(SCCC/C=C/I)nc2c1ncn2C1OC(COP(=O)(O)O)C(O)C1O (configuration not stated)	> 100
CC1=C(Cl)C=CP(=O)(Oc2ccccc2)C1 (configuration not stated)	28.7
COc1ccc(/C=c2\sc3n(c2=O)CCN=3)cc1	> 100

Test system: M19-MEL melanoma
Assay: growth of human tumour cells (NCI), 48 h

SMILES	TGI [µM]
Nc1nc(SCCC/C=C/I)nc2c1ncn2C1OC(COP(=O)(O)O)C(O)C1O (configuration not stated)	> 100
Nc1c(S(=O)(=O)O)cc2cc(S(=O)(=O)O)ccc2c1N=Nc1ccc(-c2ccc(N=Nc3c(N)c(S(=O)(=O)O)cc4cc(S(=O)(=O)O)ccc34)c(S(=O)(=O)O)c2)cc1	> 100
COc1ccc(/C=c2\sc3n(c2=O)CCN=3)cc1	> 100

Test system: MCF7 breast
Assay: growth of human tumour cells (NCI), 48 h

SMILES	TGI [µM]
COc1ccc(C(=C2C=CC=C2)c2ccc(OC)cc2)cc1	37.6
Oc1ccc(-c2nc3ccc(Br)cc3s2)cc1	74.5
Nc1c(S(=O)(=O)O)cc2cc(S(=O)(=O)O)ccc2c1N=Nc1ccc(-c2ccc(N=Nc3c(N)c(S(=O)(=O)O)cc4cc(S(=O)(=O)O)ccc34)c(S(=O)(=O)O)c2)cc1	51.4
N=c1nnc2ccc(Cl)cc2n1O	> 100
CCN(CC)CCNC(=O)c1cc2cc(NC(=O)c3cc4cc([N+](=O)[O-])ccc4[nH]3)ccc2[nH]1	> 100

Test system: MDA-MB-435
Assay: growth of human tumour cells (NCI), 48 h

SMILES	TGI [µM]
COc1ccc(C(=C2C=CC=C2)c2ccc(OC)cc2)cc1	> 100
Oc1ccc(-c2nc3ccc(Br)cc3s2)cc1	53.4
N=c1nnc2ccc(Cl)cc2n1O	> 100
CCN(CC)CCNC(=O)c1cc2cc(NC(=O)c3cc4cc([N+](=O)[O-])ccc4[nH]3)ccc2[nH]1	> 100

Test system: MDA-N
Assay: growth of human tumour cells (NCI), 48 h

SMILES	TGI [µM]
COc1ccc(C(=C2C=CC=C2)c2ccc(OC)cc2)cc1	> 100
Oc1ccc(-c2nc3ccc(Br)cc3s2)cc1	> 100
N=c1nnc2ccc(Cl)cc2n1O	> 100
CCN(CC)CCNC(=O)c1cc2cc(NC(=O)c3cc4cc([N+](=O)[O-])ccc4[nH]3)ccc2[nH]1	> 100

Test system: PC-3 prostate
Assay: growth of human tumour cells (NCI), 48 h

SMILES	TGI [µM]
COc1ccc(C(=C2C=CC=C2)c2ccc(OC)cc2)cc1	> 100
Oc1ccc(-c2nc3ccc(Br)cc3s2)cc1	54.8
N=c1nnc2ccc(Cl)cc2n1O	> 100
CCN(CC)CCNC(=O)c1cc2cc(NC(=O)c3cc4cc([N+](=O)[O-])ccc4[nH]3)ccc2[nH]1	> 100

Test system: RPMI-8226 leukemia
Assay: growth of human tumour cells (NCI), 48 h

SMILES	TGI [µM]
COc1ccc(C(=C2C=CC=C2)c2ccc(OC)cc2)cc1	28
Oc1ccc(-c2nc3ccc(Br)cc3s2)cc1	40.2
Nc1c(S(=O)(=O)O)cc2cc(S(=O)(=O)O)ccc2c1N=Nc1ccc(-c2ccc(N=Nc3c(N)c(S(=O)(=O)O)cc4cc(S(=O)(=O)O)ccc34)c(S(=O)(=O)O)c2)cc1	> 100
N=c1nnc2ccc(Cl)cc2n1O	> 100
CCN(CC)CCNC(=O)c1cc2cc(NC(=O)c3cc4cc([N+](=O)[O-])ccc4[nH]3)ccc2[nH]1	9.63

Test system: SNB-75 CNS
Assay: growth of human tumour cells (NCI), 48 h

SMILES	TGI [µM]
COc1ccc(C(=C2C=CC=C2)c2ccc(OC)cc2)cc1	> 100
Nc1nc(SCCC/C=C/I)nc2c1ncn2C1OC(COP(=O)(O)O)C(O)C1O (configuration not stated)	> 100
Nc1c(S(=O)(=O)O)cc2cc(S(=O)(=O)O)ccc2c1N=Nc1ccc(-c2ccc(N=Nc3c(N)c(S(=O)(=O)O)cc4cc(S(=O)(=O)O)ccc34)c(S(=O)(=O)O)c2)cc1	> 100
N=c1nnc2ccc(Cl)cc2n1O	> 100
CCN(CC)CCNC(=O)c1cc2cc(NC(=O)c3cc4cc([N+](=O)[O-])ccc4[nH]3)ccc2[nH]1	> 100
COc1ccc(/C=c2\sc3n(c2=O)CCN=3)cc1	> 100

Test system: SNB-78 CNS
Assay: growth of human tumour cells (NCI), 48 h

SMILES	TGI [µM]
Nc1nc(SCCC/C=C/I)nc2c1ncn2C1OC(COP(=O)(O)O)C(O)C1O (configuration not stated)	> 100
Nc1c(S(=O)(=O)O)cc2cc(S(=O)(=O)O)ccc2c1N=Nc1ccc(-c2ccc(N=Nc3c(N)c(S(=O)(=O)O)cc4cc(S(=O)(=O)O)ccc34)c(S(=O)(=O)O)c2)cc1	> 100
CC1=C(Cl)C=CP(=O)(Oc2ccccc2)C1 (configuration not stated)	> 100
COc1ccc(/C=c2\sc3n(c2=O)CCN=3)cc1	> 100

Test system: UACC-257 melanoma
Assay: growth of human tumour cells (NCI), 48 h

SMILES	TGI [µM]
COc1ccc(C(=C2C=CC=C2)c2ccc(OC)cc2)cc1	> 100
Oc1ccc(-c2nc3ccc(Br)cc3s2)cc1	51.1
Nc1nc(SCCC/C=C/I)nc2c1ncn2C1OC(COP(=O)(O)O)C(O)C1O (configuration not stated)	> 100
Nc1c(S(=O)(=O)O)cc2cc(S(=O)(=O)O)ccc2c1N=Nc1ccc(-c2ccc(N=Nc3c(N)c(S(=O)(=O)O)cc4cc(S(=O)(=O)O)ccc34)c(S(=O)(=O)O)c2)cc1	> 100
N=c1nnc2ccc(Cl)cc2n1O	> 100
CCN(CC)CCNC(=O)c1cc2cc(NC(=O)c3cc4cc([N+](=O)[O-])ccc4[nH]3)ccc2[nH]1	> 87.1
CC1=C(Cl)C=CP(=O)(Oc2ccccc2)C1 (configuration not stated)	> 100
COc1ccc(/C=c2\sc3n(c2=O)CCN=3)cc1	> 100

Test system: XF 498 CNS
Assay: growth of human tumour cells (NCI), 48 h

SMILES	TGI [µM]
Nc1nc(SCCC/C=C/I)nc2c1ncn2C1OC(COP(=O)(O)O)C(O)C1O (configuration not stated)	> 100
Nc1c(S(=O)(=O)O)cc2cc(S(=O)(=O)O)ccc2c1N=Nc1ccc(-c2ccc(N=Nc3c(N)c(S(=O)(=O)O)cc4cc(S(=O)(=O)O)ccc34)c(S(=O)(=O)O)c2)cc1	> 100
CC1=C(Cl)C=CP(=O)(Oc2ccccc2)C1 (configuration not stated)	> 100
